Assay results reported in patent publication US8691943B2, “Antimicrobial activity of chicken NK-2 peptide against apicomplexan protozoa” (priority 2011, dated 2014).
Where no end group is shown, it is not given here.

Key:
E. acervulina oocysts = assay: In ovo plus intraperitoneal administration, protection against live oral E. acervulina challenge; format: in vivo, chickens
Experimental: FIGS. 6A and 6B depict the effect of cNK-2 treatment on body weight gains of birds infected with E. acervulina. At 1 day post-hatch, the chickens were infected with 500 sporulated oocysts of E. acervulina. Body weights were assessed at 5 days (FIG. 6A) and 10 days (FIG. 6B) post-infection. […] Each bar represents the mean±SEM values.
FIG. 7 depicts the effect of cNK-2 treatment on fecal oocyst shedding after oral challenge infection with live E. acervulina. At 1 day post-hatch, chickens were infected with 500 sporulated oocysts of E. acervulina and fecal oocysts were measured starting from day 5 to day 10 post-infection. Each bar represents the mean±SEM values.
For protection studies, broiler eggs at the 18-day-old embryo stage were allocated into 4 groups of 12 eggs each. An in ovo injector was used to inoculate eggs. The two control groups (Groups 1 and 2) received no NK lysin peptide and were mock inoculated with Hanks Balanced Salt Solution (HBSS) only. Two groups were inoculated with an in ova injection of cNK-2 peptide (ARS005-1; RD-27) at doses of 1 μg/embryo (Group 3) or 5 μg/embryo (Group 4). Three days later, birds were hatched and moved to brooder petersime units. Birds of Groups 3 and 4 were given a second injection with cNK-2 peptide at doses of 1 μg/bird and 5 μg/bird, respectively, using an intraperitoneal route as shown in Table 2. Birds that had been injected in ova with HBSS alone were not given an additional intraperitoneal injection (Table 2).
At one day post hatch, the birds from Groups 2, 3 and 4 were challenged orally with 500 sporulated, live Eimeria acervulina oocysts. Body weights were measured at 1 day post hatch, i.e., on the day of challenge (coccidia infection), at 5 days (FIG. 6A) and at 10 days (FIG. 6B) post-infection.
The effect of cNK-2 peptide on fecal oocyst shedding was also determined. […] Oocysts were collected between 5 and 10 days post infection and the number were counted using an established method (FIG. 7).

N. caninum tachyzoites = assay: Neospora caninum tachyzoite viability by trypan blue exclusion; format: cell-based; settings: 41° C.; for tachyzoites killed: 1 h incubation; for tachyzoites killing: 3 h incubation
Experimental: FIG. 3 depicts the dose- and time-dependant effects of chicken cNK-2 peptide on Neospora caninum tachyzoites. For investigating kinetics of NK-lysin peptides, N. caninum tachyzoites (1.0×10^7/ml) were incubated with medium (control) and two different concentrations (5 uM and 10 uM) of cNK-2 for 1 h and 3 h at 41° C.; tachyzoite viability was assessed by trypan blue exclusion. Experiments were performed in triplicate. RPMI medium alone served as the negative control. Data were expressed as means±SEM. Differences were considered statistically significant at P<0.05 by the Duncan's multiple range test.
N. caninum tachyzoites were prepared as described with modifications (Tuo et al. 2005. Infect. Immun. 73:5093-5100). N. caninum (NC-1 isolate) tachyzoites were cultured on bovine monocytes (Lindsay and Dubey. 1989. J. Parasitol. 75:163-165) in RPMI 1640 medium supplemented with 2% fetal calf serum and 50 μg/ml gentamicin at 37° C. in a 95% air and 5% CO2 atmosphere. N. caninum tachyzoite-infected host cells were collected, passed through 20- and 27-gauge needles, and pelleted by centrifugation at 1,000×g for 20 min at 4° C. Tachyzoites were then purified by centrifugation over a 40% Percoll gradient at 2,000×g for 30 min at 4° C. The tachyzoite pellet was then resuspended in PBS (pH 7.4) and washed three times. Finally tachyzoites were resuspended to 5.0×10^6/ml in 10% RPMI-1640 medium (Sigma). The tachyzoites were incubated for 1 h or 3 h at 41° C. with synthetic chicken NK-lysin peptides (5 μM and 10 μM), stained with trypan blue, and viable tachyzoites were counted microscopically.

E. maxima = assay: Membrane permeabilization in E. maxima (data not shown); format: cell-based, Eimeria maxima
E. coli strain BMH71-18 = assay: Bactericidal activity, broth microdilution assay (OD600); format: cell-based; settings: peptides 0-40 μg/ml, 18 h
Experimental: Ampicillin (0-20 μg/ml), chicken NK-lysin peptides (0-40 μg/ml), or LB broth alone were added to cultures of the bacteria and incubated for 18 h at […]. Bacterial growth was determined by measuring OD600. X axis: Ampicillin concentrations.
To evaluate the bactericidal activity of NK-lysin peptides, the minimum inhibitory concentration (MIC) values of the purified recombinant protein against E. coil strain BMH71-18 were determined using a standardized broth microdilution assay. Ampicillin MIC values against the bacteria were determined in parallel as positive controls. The assays were performed in accordance with Clinical and Laboratory Standards Institute (CLSI; Formerly National Committee for Clinical Laboratory Standards [NCCLS]) guidelines (NCCLS. 1999. In: Methods for Determining Bacterial Activity of Antimicrobial Agents, NCCLC, Wayne, Pa.; NCCLS. 2002. In: Performance Standards for Antimicrobial Disk and Dilution Susceptibility Tests for Bacteria isolated from Animals; Approved Standard, 2nd ed. NCCLS, Wayne, Pa.). […] The wells were incubated for 18 h at 37° C. with ambient air circulation and without shaking, and the optical density (OD) of each well was measured on a Synergy HT™ multi-modal plate reader (Bio-Tec Instruments, Winooski, Vt.) at 600 nm. Background values, derived from non-inoculated wells containing broth alone, were subtracted from all readings.

[1] = tested on: E. acervulina sporozoites; assay: Eimeria acervulina sporozoite viability by trypan blue exclusion; format: cell-based; settings: for effect on E. acervulina sporozoites viability: peptide 1 μM to 10 μM, 1 h, 3 h, 6 h at 41° C.
Experimental: FIG. 1 depicts the cytotoxic activity of chicken NK-lysin peptides for Eimeria acervulina sporozoites. E. acervulina sporozoites (2×10^6/ml) were incubated with control medium (HBSS) and 4 kinds of NK-lysin peptides (50 ug/ml, 100 ug/ml) for 3 h at 41° C. Sporozoite viability was assessed by trypan blue exclusion. Experiments were done in triplicate and considered significant at P<0.01.
For investigating the kinetics of NK-lysin peptides, E. acervulina sporozoites (1.5×10^6/ml) were incubated with NK-lysin-transfected COS7 cell supernatant (1:1 dilution) and various concentrations of melittin, cNK-2 or cNK-4 for 1 h, 3 h and 6 h at 41° C.; sporozoite viability was assessed by trypan blue exclusion. Experiments were performed in triplicate.
E. acervulina sporozoites were obtained by excystation of sporulated oocysts (Dulski and Turner. 1988. Avian Dis. 32:235-239). After breaking the oocyst membrane with 0.5 mm glass beads by Mini-beadbeater (BioSpec Products Inc., Bartlesville, Okla.), sporocysts were purified by isopycnic centrifugation on a Percoll gradient, washed in cold PBS, then treated with excystation solution (0.25% trypsin, 0.014 M taurocholic acid) for 30 min at 41° C. to release sporozoites. Excystation fluid was filtered and the sporozoites were washed 3 times with cold HBSS at 3,000 rpm for 10 min at 4° C. and resuspended to 1.0×10^6/ml in HBSS or 10% RPMI-1640 medium (Sigma) (Hong et al. 2008, supra). The sporozoites were incubated for 1 h, 3 h or 6 h at 41° C. with NK-lysin-transfected COS7 cell supernatants, melittin or synthetic chicken NK-lysin peptides, stained with trypan blue, and viable sporozoites were counted microscopically.
To compare the effect of four kinds of chicken NK-lysin peptides on Eimeria acervulina sporozoites, Eimeria sporozoites were incubated in 50 μg/ml and 100 ug/ml of each peptide for 3 h at 41° C., respectively. The HBSS was used as a control. […] In contrast, other peptides or control didn't kill Eimeria sporozoites (FIG. 1).
We next investigated the cytolytic activity of cNK-2 lytic peptide at increasing concentrations from 1 μM to 10 μM (FIG. 2). Melittin was used as a positive control to gain peptide-induced lysis in the absence of a phospholipid preference (Dempsey, C. E. 1990. Biochim. Biophys. Acta 1031:143-161).

C. parvum sporozoites = assay: Cryptosporidum parvum sporozoite viability by two-component fluorescent dye exclusion assay; format: cell-based; settings: 0.017, 0.17, 17 and 170 μg/ml; 2 hrs incubation; P<0.01 at 170 μg/ml, P<0.05 at the others
Experimental: FIG. 4 depicts the effect of NK lysine on Cryptosporidum parvum sporozoites. Freshly prepared C. parvum sporozoites were incubated with different doses of cNK-2 for […] and Cryptosporidia sporozoite viability was measured by a two-component fluorescent dye exclusion assay (LIVE/DEAD Reduced Biohazard Viability/Cytotoxicity Kits, Molecular Probes L-7013). The result is presented as the means plus standard deviations. Statistical analysis was performed by the paired t-test with the Statcel2 software. The level of significance was set at a P value of <0.05.
C. parvum sporozoites were prepared as described with modifications (Riggs and Perryman. 1987. Infect. Immun. 55:2081-2087). The C. parvum sporozoites were incubated with various concentrations of cNK-2 peptides or BSA and viability was assessed after 2 hrs of incubation. Viability of the sporozoites was measured by a two-component fluorescent dye exclusion assay (LIVE/DEAD Reduced Biohazard Viability/Cytotoxicity Kits, Molecular Probes L-7013). Results are presented as the means plus standard deviations. […] Statistical analysis was performed with the Statcel2 software.

E. tenella = assay: Membrane permeabilization in E. tenella (data not shown); format: cell-based, Eimeria tenella

| Molecule | body weights of infected birds compared with HBSS control birds (E. acervulina oocysts; 1 μg and 5 μg in ovo then intraperitoneal, 5 and 10 days post-infection, 500 oocysts, P<0.05) | fecal oocyst shedding (E. acervulina oocysts; dose of at least 5 μg, oocysts collected 5 to 10 days post infection, P<0.05) | protective effect against live oral challenge infection (E. acervulina oocysts; in ovo injections followed by intraperitoneal injections, 500 E. acervulina oocysts) | tachyzoites killed (N. caninum tachyzoites; 5 uM) | tachyzoites killing (N. caninum tachyzoites; 5 uM) | tachyzoites killed (N. caninum tachyzoites; 10 uM) | tachyzoites killing (N. caninum tachyzoites; 10 uM) | membrane permeabilization (E. maxima) | antimicrobial activity against bacterial growth (E. coli strain BMH71-18) | killing of E. acervulina sporozoites (viability, trypan blue) ([1]; 50 μg/ml or 100 μg/ml peptide, 3 h at 41° C., HBSS control, P<0.01) | effect on E. acervulina sporozoites viability [1] | viability of C. parvum sporozoites (C. parvum sporozoites) | membrane permeabilization (E. tenella) | cytolytic effect on E. acervulina sporozoites ([1]; melittin positive control at 2.5 μM and 5 μM) |
| --- | --- | --- | --- | --- | --- | --- | --- | --- | --- | --- | --- | --- | --- | --- |
| RRQRSICKQLLKKLRQQLSDALQNNDD-NH2 [cNK-2] | significantly higher body weights | significant reduction of fecal oocyst shedding | significant protective effect | about 46% | 71% | ~60% | 86% | caused membrane permeabilization | Neither chicken NK-lysin nor the NK-lysin peptides, cNK-2 and cNK-4, demonstrated antimicrobial activity | significantly killed | time- and dose-dependent effect | significant decreases in the viability | caused membrane permeabilization | – |
| CC[C@H](C)[C@H](NC(=O)CN)C(=O)NCC(=O)N[C@@H](C)C(=O)N[C@H](C(=O)N[C@@H](CC(C)C)C(=O)N[C@@H](CCCCN)C(=O)N[C@H](C(=O)N[C@@H](CC(C)C)C(=O)N[C@H](C(=O)N[C@H](C(=O)NCC(=O)N[C@@H](CC(C)C)C(=O)N1CCC[C@H]1C(=O)N[C@@H](C)C(=O)N[C@@H](CC(C)C)C(=O)N[C@H](C(=O)N[C@@H](CO)C(=O)N[C@@H](Cc1c[nH]c2ccccc12)C(=O)N[C@H](C(=O)N[C@@H](CCCCN)C(=O)N[C@@H](CCCNC(=N)N)C(=O)N[C@@H](CCCCN)C(=O)N[C@@H](CCCNC(=N)N)C(=O)N[C@@H](CCC(N)=O)C(=O)N[C@@H](CCC(N)=O)C(N)=O)[C@@H](C)CC)[C@@H](C)CC)[C@@H](C)O)[C@@H](C)O)C(C)C)C(C)C [Melittin, reference compound] | – | – | – | – | – | – | – | – | – | – | – | – | – | total disruption of the cellular membrane |
| cNK-4: synthetic chicken NK-lysin peptide (88-117), AINNALNKVCSTGRRQRSICKQLLKKLRQQ, SEQ ID NO. 4 (listed as Gallus gallus) | – | – | – | – | – | – | – | – | Neither chicken NK-lysin nor the NK-lysin peptides, cNK-2 and cNK-4, demonstrated antimicrobial activity | – | no effect | – | – | – |
